Results: article PMC2605521 (Journal of medicinal chemistry, 2008)
Entries after “also recorded” stand apart in the source; their conditions may differ. Where two headings read alike, the source gives them in different places.

Assays:
[1] = molecular target: δ receptors (Homo sapiens, UniProt P41143); assay: [35S]GTP-γ-S functional assay, δ-antagonism; format: biochemical
[2] = molecular target: T1, μ-receptors (Homo sapiens, UniProt P35372); assay: biochemical; format: biochemical
[3] = molecular target: κ receptors (Homo sapiens, UniProt P41145); assay: [35S]GTP-γ-S functional assay, κ-antagonism; format: biochemical; details: for κ-antagonist activity in the functional assay (in words): [35S]GTPγS assay
Chain of κ receptors (P41145 whole entry): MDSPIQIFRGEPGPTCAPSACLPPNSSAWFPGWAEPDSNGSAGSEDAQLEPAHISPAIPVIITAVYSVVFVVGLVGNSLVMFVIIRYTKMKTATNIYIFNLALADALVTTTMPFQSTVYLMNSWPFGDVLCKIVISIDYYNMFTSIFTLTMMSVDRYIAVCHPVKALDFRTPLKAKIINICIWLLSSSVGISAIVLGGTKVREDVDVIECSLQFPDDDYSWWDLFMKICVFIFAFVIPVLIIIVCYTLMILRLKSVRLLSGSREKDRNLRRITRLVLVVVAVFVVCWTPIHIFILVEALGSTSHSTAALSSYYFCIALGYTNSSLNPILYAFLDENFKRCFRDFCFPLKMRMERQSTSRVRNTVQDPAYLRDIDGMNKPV

[4] = molecular target: δ-opioid receptor (Homo sapiens, UniProt P41143); assay: [125I]Ioxy binding, CHO cells expressing δ-opioid receptor
Chain of δ-opioid receptor (P41143 whole entry): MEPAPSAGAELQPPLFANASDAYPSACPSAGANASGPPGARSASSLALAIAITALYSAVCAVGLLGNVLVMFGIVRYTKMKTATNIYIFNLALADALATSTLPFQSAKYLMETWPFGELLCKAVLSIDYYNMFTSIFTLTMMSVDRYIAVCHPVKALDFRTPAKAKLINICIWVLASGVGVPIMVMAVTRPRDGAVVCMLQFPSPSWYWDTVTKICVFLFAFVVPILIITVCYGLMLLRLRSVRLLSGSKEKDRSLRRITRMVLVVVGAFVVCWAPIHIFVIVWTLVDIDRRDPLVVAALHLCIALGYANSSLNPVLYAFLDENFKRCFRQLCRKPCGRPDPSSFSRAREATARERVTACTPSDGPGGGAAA

[5] = molecular target: T2, μ-opioid receptor (Homo sapiens, UniProt P35372); assay: [125I]Ioxy binding, CHO cells expressing μ-opioid receptor; details: for affinity for μ-receptors (in words): compared with the N-methyl analogues 46 and 47
T2 sequence (P35372 whole entry, species assumed): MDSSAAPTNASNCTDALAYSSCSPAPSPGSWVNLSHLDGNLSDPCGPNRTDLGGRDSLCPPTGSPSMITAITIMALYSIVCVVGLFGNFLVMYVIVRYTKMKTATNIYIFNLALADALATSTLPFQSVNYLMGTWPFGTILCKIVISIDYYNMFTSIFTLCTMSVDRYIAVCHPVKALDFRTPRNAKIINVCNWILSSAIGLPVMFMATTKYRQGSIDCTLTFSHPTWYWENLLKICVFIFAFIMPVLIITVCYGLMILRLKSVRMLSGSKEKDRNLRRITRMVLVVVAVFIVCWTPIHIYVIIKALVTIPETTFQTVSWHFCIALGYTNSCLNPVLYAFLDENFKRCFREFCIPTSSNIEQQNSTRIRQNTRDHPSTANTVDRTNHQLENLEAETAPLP

[6] = molecular target: T1, μ-receptors; details: [35S]GTPγS assay; cited from earlier work
[7] = molecular target: T2, μ-opioid receptor; details: read-out: Ki at μ-receptors; earlier work; cited from earlier work
[8] = cited from earlier work

T1 sequence (P35372 whole entry, species assumed): as above
Chain of δ receptors (P41143 whole entry): as the sequence (P41143 whole entry) above

**Q.** With Oc1ccc2c(c1)[C@@]13CCN(CCc4ccccc4)[C@@H](CC[C@H]1O2)C3 (racemic) [Compound 16, (4R*,6aS*,11bR*)-2,3,4,5,6,6a-Hexahydro-3-phenethyl-1H-4,11b-methanobenzofuro[3,2-d]azocine-10-ol] as the compound, how does the Kb [1] read?
**A.** Its Kb is 17000 ± 4200 nM.

**Q.** What about the Kb [2] of the same compound?
**A.** The Kb was 260 ± 79 nM.

**Q.** And the Kb [3]?
**A.** Its Kb is 19 ± 5.2 nM.

**Q.** What about the “κ-antagonist activity in the functional assay (in words)” value [3] of the same compound?
**A.** The value was “moderately active κ-antagonists; also recorded: moderately potent κ-receptor antagonists”.

**Q.** With CN1CC[C@@]23C[C@@H]1CC[C@H]2Oc1c(O)cccc13 (racemic) [Compound 20, (4R*,6aS*,11bR*)-2,3,4,5,6,6a-Hexahydro-3-methyl-1H-4,11b-methanobenzofuro[3,2-d]azocine-8-ol] as the compound, how does the Ki [4] read?
**A.** The Ki was over 10000 nM.

**Q.** For Oc1cccc2c1O[C@@H]1CC[C@H]3C[C@@]21CCN3CCc1ccccc1 (racemic) [Compound 24, (4R*,6aS*,11bR*)-2,3,4,5,6,6a-Hexahydro-3-phenethyl-1H-4,11b-methanobenzofuro[3,2-d]azocine-8-ol], which Kb [1] is on record?
**A.** The Kb was 8000 ± 1500 nM.

**Q.** And the Kb [2]?
**A.** The Kb was 77 ± 13 nM.

**Q.** What about the “μ-antagonist activity in the functional assay (in words)” value [2] of the same compound?
**A.** Its value is “weak μ-antagonist activity”.

**Q.** And the Kb [3]?
**A.** The Kb was 21 ± 3.4 nM.

**Q.** What about the “κ-antagonist activity in the functional assay (in words)” value [3] of the same compound?
**A.** Its value is “moderately active κ-antagonists; also recorded: moderately potent κ-receptor antagonists”.

**Q.** With CN1C[C@@H]2Oc3c(O)cccc3[C@@]23CCC[C@@H]1C3 (racemic) [Compound 46, (3R*,6aS*,11aR*)-1,3,4,5,6,11a-Hexahydro-2-methyl-2H-3,6a-methanobenzofuro[2,3-c]azocin-10-ol] as the compound, how does the Ki [5] read?
**A.** The Ki was 8000 ± 406 nM.

**Q.** With CN1C[C@@H]2Oc3ccc(O)cc3[C@@]23CCC[C@@H]1C3 (racemic) [Compound 47, (3R*,6aS*,11aR*)-1,3,4,5,6,11a-Hexahydro-2-methyl-2H-3,6a-methanobenzofuro [2,3-c]azocin-8-ol] as the compound, how does the Ki [5] read?
**A.** Its Ki is 2930 ± 203 nM.

**Q.** With Oc1cccc2c1O[C@H]1CN(CCc3ccccc3)[C@@H]3CCC[C@]21C3 (racemic) [Compound 51, (3R*,6aS*,11aR*)-1,3,4,5,6,11a-Hexahydro-2-phenethyl-2H-3,6a-methanobenzofuro [2,3-c]azocin-10-ol] as the compound, how does the “affinity for μ-receptors (in words)” value [5] read?
**A.** The value was “only slight affinity”.

**Q.** With Oc1ccc2c(c1)[C@]13CCC[C@H](C1)N(CCc1ccccc1)C[C@@H]3O2 (relative stereo) [Compound 52] as the compound, how does the “affinity for μ-receptors (in words)” value [5] read?
**A.** Its value is “only slight affinity”.

**Q.** With Oc1cccc2c1O[C@H]1[C@H]3CCC[C@@]21CCN3CCc1ccccc1 (single isomer, unassigned) [(−)-N-phenethyl ortho-f isomer] as the compound, how does the “potency as μ-opioid antagonist (in words)” value [6] read?
**A.** Its value is “more potent than naloxone”.

**Q.** And the Ki [7]?
**A.** The Ki was 7 nM.

**Q.** For Oc1cccc2c1O[C@H]1[C@@H]3CCC[C@]21CCN3CCc1ccccc1 (single isomer, unassigned) [(−)-N-phenethyl para-e isomer], which “antinociceptive activity (in words)” value [8] is on record?
**A.** Its value is “morphine-like antinociceptive”.
